Results taken from US9505740B2, “Cyclic amine derivative and pharmaceutical use thereof” (Toray Industries, Inc., priority 2013, dated 2016).
Structures can show the parent of a compound that is named as a salt.

How the values were obtained:
[1] = system: mouse partial sciatic nerve ligation model; assay: Mouse partial sciatic nerve ligation model (Seltzer model), von Frey test; assay type: in vivo; settings: Day 7, vs physiological saline group
[2] = system: fibromyalgia syndrome model rats; assay: Fibromyalgia syndrome model in rats (acidic saline), allodynia by von Frey filament; assay type: in vivo, rat; settings: intravenous administration; Example 13 3 and 10 mg/kg, pregabalin 10 mg/kg; 30 minutes after administration; vs acidic saline-vehicle group
From the text: Using a fibromyalgia syndrome model in rats by which fibromyalgia syndrome can be evaluated, the analgesic action of a cyclic amine derivative (I) or a prodrug thereof or a pharmacologically acceptable salt thereof was investigated.
As the cyclic amine derivative (I) or a pharmacologically acceptable salt thereof, the compound of Example 13 was used for evaluation. As the prodrug of a cyclic amine derivative (I) or a pharmacologically acceptable salt thereof, the compound of Example 38 was used for evaluation. The compound of Example 38 is a hydrochloride of a prodrug obtained by esterifying the carboxyl group of the compound of Example 39 with an ethyl group.
To prepare a fibromyalgia syndrome model rat (Sluka et al., Journal of Pharmacology and Experimental Therapeutics, vol. 302, p. 1146-50, 2002; Nagakura et al., Pain, vol. 146, p. 26-33, 2009; Sluka et al., Pain, vol. 146, p. 3-4, 2009), which is generally employed widely in basic research for fibromyalgia syndrome, acidic saline (100 μL) adjusted to pH4.0 was intramuscularly injected to the gastrocnemius muscle of the right hind paw of Crl: CD(SD) rat (6 to 7 weeks old, male; from CHARLES RIVER LABORATORIES JAPAN, INC.) under continuous inhalation anesthesia with isoflurane, twice (once in each day of Day 1 and Day 6, wherein Day 1 was the date on which the acidic saline was initially administrated). The rats thus prepared were raised in a breeding room controlled at an indoor temperature of 21 to 25° C. and an indoor humidity of 40 to 70% under the conditions of voluntary intake of food and water. In the same manner, rats to which physiological saline in place of acidic saline was intramuscularly injected were raised. The rats thus raised and not afflicted with fibromyalgia syndrome (“physiological saline-vehicle” group in FIGS. 23 and 24) were also used in the experiment.
Day 7 after the initial administration of acidic saline, allodynia in each rat was measured. […] Note that, measurement of allodynia was performed by use of a von Frey filament (from North Coast Medical) in accordance with the method described in a known literature (Chaplan et al., Journal of Neuroscience Methods, vol. 53, p. 55-63, 1994). […]
The compound of Example 13 (3 and 10 mg/kg) was dissolved in physiological saline and then administered (intravenous administration) to fibromyalgia syndrome model rats through the tail vein (“acidic saline—the compound of Example 13” in FIG. 23). […] In thirty minutes after the intravenous administration, allodynia in individual rats was measured to evaluate an analgesic action. […]

[3] = intravenous administration (tail vein), Examples 2, 4: 0.1 to 10 mg/kg, 13: 0.01 to 1 mg/kg, 18, 22: 0.1 and 1 mg/kg, 25, 27, 29, 31, 33, 66, 68, 70: 0.1 mg/kg, pregabalin 1 or 3 mg/kg
[4] = intraventricular administration, 10 μg/site, 15, 30 and 60 minutes after administration, p<0.05

| Structure (SMILES) | analgesic action, total score in the von Frey test [1, 3] | analgesic action, total score in the von Frey test [1, 4] | allodynia, 50% response threshold (mean value of the right hind paw and the left hind paw) [2] |
| --- | --- | --- | --- |
| CC(=O)N(C)C1CCN(C(=O)CCc2nccn2C)CC1.Cl [Example 4, N-methyl-N-(1-(3-(1-methyl-1H-imidazol-2-yl)propanoyl)piperidin-4-yl)acetamide hydrochloride] | statistically significant analgesic action | statistically significant analgesic action |  |
| CN1CCN(C2CCN(C(=O)CCc3nccn3CC(=O)O)CC2)CC1.Cl [Example 29, 2-(2-(3-(4-(1-methylpiperazin-4-yl)piperidin-1-yl)-3-oxopropyl)-1H-imidazol-1-yl)acetic acid hydrochloride] | statistically significant analgesic action |  |  |
| Cl.O=C(O)Cn1ccnc1CCC(=O)N1CCC(N2CCOCC2)CC1 [Example 27, 2-(2-(3-(4-(morpholin-4-yl)piperidin-1-yl)-3-oxopropyl)-1H-imidazol-1-yl)acetic acid hydrochloride] | statistically significant analgesic action |  |  |
| CN(C)[C@H]1CCN(C(=O)CCc2nccn2CCC(=O)O)C1.Cl [Example 70, (S)-3-(2-(3-(3-(dimethylamino)pyrrolidin-1-yl)-3-oxopropyl)-1H-imidazol-1-yl)propanoic acid hydrochloride] | statistically significant analgesic action |  |  |
| CC(=O)NCCN(C)C1CCN(C(=O)CCc2nccn2C)CC1 [Example 6, N-(2-(methyl(1-(3-(1-methyl-1H-imidazol-2-yl)propanoyl)piperidin-4-yl)amino)ethyl)acetamide hydrochloride] |  | statistically significant analgesic action |  |
| CNC1CCN(C(=O)CCc2nccn2C)CC1 [Example 2, 3-(1-methyl-1H-imidazol-2-yl)-1-(4-(methylamino)piperidin-1-yl)propan-1-one hydrochloride] | statistically significant analgesic action | statistically significant analgesic action |  |
| CN(C)[C@H]1CCN(C(=O)CCc2nccn2CC(=O)O)C1.Cl [Example 33, (S)-2-(2-(3-(3-(dimethylamino)pyrrolidin-1-yl)-3-oxopropyl)-1H-imidazol-1-yl)acetic acid hydrochloride] | statistically significant analgesic action |  |  |
| CN(C)C1CCN(C(=O)CCc2nccn2CCN)CC1 [Example 15, 3-(1-(2-aminoethyl)-1H-imidazol-2-yl)-1-(4-(dimethylamino)piperidin-1-yl)propan-1-one hydrochloride] |  | statistically significant analgesic action |  |
| CN(C)[C@@H]1CCCN(C(=O)CCc2nccn2CC(=O)O)C1.Cl [Example 31, 2-(2-(3-((R)-3-dimethylaminopiperidin-1-yl)-3-oxopropyl)-1H-imidazol-1-yl)acetic acid hydrochloride] | statistically significant analgesic action |  |  |
| Cl.O=C(O)Cn1ccnc1CCC(=O)N1CCC(N2CCCCC2)CC1 [Example 25, 2-(2-(3-(4-(piperidin-1-yl)piperidin-1-yl)-3-oxopropyl)-1H-imidazol-1-yl)acetic acid hydrochloride] | statistically significant analgesic action |  |  |
| CN(C)C1CCN(C(=O)CCc2nccn2CC(=O)O)CC1 [Example 13, 2-(2-(3-(4-(dimethylamino)piperidin-1-yl)-3-oxopropyl)-1H-imidazol-1-yl)acetic acid hydrochloride] | statistically significant analgesic action | statistically significant analgesic action | statistically significantly improved |
| CCN(CC)C1CCN(C(=O)CCc2nccn2CC(=O)O)CC1.Cl [Example 22, 2-(2-(3-(4-(diethylamino)piperidin-1-yl)-3-oxopropyl)-1H-imidazol-1-yl)acetic acid hydrochloride] | statistically significant analgesic action |  |  |
| CN(C)C1CCN(C(=O)CCc2nccn2CCO)CC1 [Example 12, 1-(4-(dimethylamino)piperidin-1-yl)-3-(1-(2-hydroxyethyl)-1H-imidazol-2-yl)propan-1-one hydrochloride] |  | statistically significant analgesic action |  |
| CC(=O)NC1CCN(C(=O)CCc2nccn2C)CC1.Cl [Example 10, N-(1-(3-(1-methyl-1H-imidazol-2-yl)propanoyl)piperidin-4-yl)acetamide hydrochloride] |  | statistically significant analgesic action |  |
| CN(C)[C@H]1CCCN(C(=O)CCc2nccn2CCC(=O)O)C1.Cl [Example 68, 3-(2-(3-((S)-3-dimethylaminopiperidin-1-yl)-3-oxopropyl)-1H-imidazol-1-yl)propanoic acid hydrochloride] | statistically significant analgesic action |  |  |
| CCN(C)C1CCN(C(=O)CCc2nccn2CC(=O)O)CC1.Cl [Example 18, 2-(2-(3-(4-(ethylmethylamino)piperidin-1-yl)-3-oxopropyl)-1H-imidazol-1-yl)acetic acid hydrochloride] | statistically significant analgesic action |  |  |
| CN(C)C1CCN(C(=O)CCc2nccn2CCC(=O)O)CC1 [Example 66, 3-(2-(3-(4-(dimethylamino)piperidin-1-yl)-3-oxopropyl)-1H-imidazol-1-yl)propanoic acid hydrochloride] | statistically significant analgesic action |  |  |
